# Results taken from patent US8058431B2, “Fluorescent double stranded DNA binding dyes” (Roche Diagnostics Operations, Inc., priority 2006, dated 2011).
# Experiments:
# [1] = Bleaching of dye solution during a typical PCR protocol on a real-time PCR instrument; type: physicochemical; conditions: excitation for fluorescence measurement and repeated temperature changes between 55 and 95° C., LIGHTCYCLER 480
# genomic DNA = test: Light stability: fluorescence of a mixture of dye and genomic DNA during continuous light exposure; type: physicochemical; conditions: for fluorescence during continuous light exposure: dye + genomic DNA
# Procedure: The light stability of R27, which is representative for the nine described dyes, was compared to established dyes already used for such applications. The fluorescence of a mixture of the respective dye and genomic DNA was measured during continuous light exposure.
bleaching of the dye [1],fluorescence during continuous light exposure (genomic DNA; light exposure 0 min) [%],fluorescence during continuous light exposure (genomic DNA; light exposure 10 min) [%],fluorescence during continuous light exposure (genomic DNA; light exposure 30 min) [%],fluorescence during continuous light exposure (genomic DNA; light exposure 60 min) [%],fluorescence during continuous light exposure (genomic DNA; light exposure 180 min) [%],fluorescence during continuous light exposure (genomic DNA; light exposure 300 min) [%],light stability compared to established dyes (genomic DNA; versus SYBR Green I and LC Green Plus),Compound
no recognizable bleaching,100,99,98,99,97,96,distinctly higher,COc1cc2c(cc1OC)N(C)C(CCCC[N+](C)(C)C)=N/C2=C\c1sc2ccccc2[n+]1C.[I-].[I-] [R 27]
–,100,87,77,70,40,24,–,"CCCN(CCCN(C)C)c1cc(C=C2Sc3ccccc3N2C)c2ccccc2[n+]1-c1ccccc1 [SYBR Green I, [2-[N-(-3-dimethylaminopropyl)-N-propylamino]-4-[2,3-dihydro-3-methyl-(benzo-1,3-thiazol-2-yl)-methylidene]-1-phenyl-quinolinium]+, reference compound]"
